The test system of one data set is normal SD rats. The data set is described as follows: Insulin levels during intravenous glucose tolerance test (IVGTT) in normal SD rats. Format: in vivo, rat. The following applies: 15 mg/kg, 30 minutes prior to glucose. The method, then: Each rat was subjected to an IVGTT according to the method of […] et al, Metabolism 42, (1):1-6, 1993. The rats were fasted overnight before administration of the test. One group of eleven rats was given only saline prior to glucose load while the second group of seven rats was given ranolazine prior to glucose load. Glucose was administered at time zero while ranolazine was administered 30 minutes prior to glucose at a dose of 15 mg/kg of body weight. Then, the insulin concentrations in the blood were measured at -30, 0, 2, 4, 7, 15 and 30 minutes. […] The procedure used was that described in Example 2 above.

For the next data set, the target named is T1, β1-adrenergic receptors (Rattus norvegicus, UniProt P18090).
T1 construct: membranes prepared from rat ventricle and guinea-pig lung, respectively; from tissue; host or cells: rat ventricle membranes
T1 sequence (P18090 whole entry): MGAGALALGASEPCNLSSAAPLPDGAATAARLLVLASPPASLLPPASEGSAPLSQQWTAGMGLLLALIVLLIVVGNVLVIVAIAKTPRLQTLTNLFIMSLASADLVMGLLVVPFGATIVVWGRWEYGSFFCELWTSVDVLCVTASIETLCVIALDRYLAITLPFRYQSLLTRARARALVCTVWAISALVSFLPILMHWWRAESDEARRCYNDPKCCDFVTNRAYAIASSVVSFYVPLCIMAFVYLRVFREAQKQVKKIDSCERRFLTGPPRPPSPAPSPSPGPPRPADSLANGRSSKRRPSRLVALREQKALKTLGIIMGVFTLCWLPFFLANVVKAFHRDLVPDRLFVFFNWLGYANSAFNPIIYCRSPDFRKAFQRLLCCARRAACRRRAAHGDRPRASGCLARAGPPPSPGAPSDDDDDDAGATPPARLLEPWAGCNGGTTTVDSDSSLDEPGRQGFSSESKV
The data set is described as follows: Radioligand binding to β1-ARs, membranes from rat ventricle. The method, then:
(§1) The objective of this example is to present the affinities and potencies of ranolazine and its S- and R-enantiomers for β1 and β2-adrenergic receptors (ARs) in various tissues and cell lines. Using radioligand binding techniques, competition of the compounds for specific radioligand binding to β1- and β2-ARs was determined using membranes prepared from rat ventricle and guinea-pig lung, respectively.

Another data set deals with T2, β2-adrenergic receptors (Cavia porcellus, UniProt Q8K4Z4).
T2 construct: membranes prepared from rat ventricle and guinea-pig lung, respectively; from tissue; host or cells: guinea-pig lung membranes
T2 sequence (Q8K4Z4 whole entry): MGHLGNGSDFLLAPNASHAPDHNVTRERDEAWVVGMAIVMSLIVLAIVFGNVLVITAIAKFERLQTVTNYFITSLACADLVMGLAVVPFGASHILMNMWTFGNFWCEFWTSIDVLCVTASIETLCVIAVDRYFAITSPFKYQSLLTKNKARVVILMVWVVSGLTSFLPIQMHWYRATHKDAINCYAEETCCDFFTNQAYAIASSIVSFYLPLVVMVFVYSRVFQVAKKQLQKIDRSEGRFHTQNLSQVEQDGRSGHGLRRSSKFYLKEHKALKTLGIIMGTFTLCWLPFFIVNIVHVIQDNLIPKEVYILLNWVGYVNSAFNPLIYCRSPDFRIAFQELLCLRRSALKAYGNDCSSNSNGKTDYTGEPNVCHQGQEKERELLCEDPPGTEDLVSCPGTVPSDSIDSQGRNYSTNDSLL
Briefly: Radioligand binding to β2-ARs, membranes from guinea-pig lung. On the procedure: as §1

The next data set addresses T3, β1-ARs (Rattus norvegicus, UniProt P18090).
T3 construct: rat C6 glioma cells (expressing mostly β1-ARS); endogenous in cells; host or cells: rat C6 glioma cells
The data set is described as follows: Isoproterenol-induced cAMP accumulation in rat C6 glioma cells (mostly β1-ARs). Format: cell-based. The settings on record: read-out: KB (Schild), β1-ARs. On the procedure: (§2) The effect of ranolazine and its S- and R-enantiomers on cAMP accumulations in rat C6 glioma cells (expressing mostly β1-ARS) and DDT1 MF-2 hamster smooth muscles cells (expressing mostly β2-ARs) were determined. […] However, in the presence of the compounds, the concentration-response curve for the isoproterenol-induced increase in cAMP was shifted to the right with no apparent reduction in the maximal responses, indication that these compounds are competitive antagonists of β1- and β2-ARs. Using the Schild equations for multiple concentrations of the antagonist (ranolazine) or for a single concentration of the enantiomers, the KB values for ranolazine and its S- and R-enantiomers were 9.7, 8.0, and >50 μM (for β1-ARS) and 12.2, 9.0, and >50 μM (for β2-ARs). In summary, ranolazine and its S-enantiomer are competitive antagonists of β1 and β2-ARS with the S-enantiomer having the highest binding affinities of all.
(In general: cAMP levels reflect the balance of adenylyl cyclase and phosphodiesterase activity.)

The target in a further data set is T4, β2-ARs (Mesocricetus auratus, UniProt P04274).
T4 construct: DDT1 MF-2 hamster smooth muscles cells (expressing mostly β2-ARs); endogenous in cells; host or cells: DDT1 MF-2 hamster smooth muscle cells
T4 sequence (P04274 whole entry): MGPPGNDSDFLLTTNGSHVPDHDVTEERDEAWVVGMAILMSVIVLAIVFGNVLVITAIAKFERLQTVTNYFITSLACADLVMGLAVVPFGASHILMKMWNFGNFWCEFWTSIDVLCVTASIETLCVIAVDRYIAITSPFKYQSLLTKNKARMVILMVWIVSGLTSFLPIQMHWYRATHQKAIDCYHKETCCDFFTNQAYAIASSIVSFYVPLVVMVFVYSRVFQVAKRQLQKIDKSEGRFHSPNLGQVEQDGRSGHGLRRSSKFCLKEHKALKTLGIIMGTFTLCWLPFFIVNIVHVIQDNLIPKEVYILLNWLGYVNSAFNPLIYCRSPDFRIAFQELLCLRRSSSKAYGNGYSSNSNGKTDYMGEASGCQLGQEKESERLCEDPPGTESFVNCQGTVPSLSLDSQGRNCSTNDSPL
The data set is described as follows: Isoproterenol-induced cAMP accumulation in DDT1 MF-2 hamster smooth muscle cells (mostly β2-ARs). In kind it is cell-based. The following applies: read-out: KB (Schild), β2-ARs. On the procedure:
as §2

The subject of a further data set is IKs. Briefly: Whole cell IKs in isolated canine left ventricular midmyocardial cells. The following applies: 30 μM. Format: cell-based. On the procedure: Whole cell currents were recorded from isolated canine left ventricular midmyocrdial cells at 37° C. IKr and IKs were recorded during standard pulse protocols. Action potentials recorded at basic cycle lengths (BCL) of 300 and 2000 ms were used as command waveforms during voltage claim to measure late INa. Enantiomeric effects were determined at concentrations of 3, 10, and 30 μM.
Late INa was evaluated at two voltages during the plateau and final repolarization of an action potential voltage claims.

Data set [1] has as its system Female rabbit isolated hearts. Briefly: LV monophasic action potential duration (MAPD90) in female rabbit isolated hearts. The following applies: for EC50: Oryctolagus cuniculus. On the procedure:
The objective of this example is to present the effects of ranolazine and the R- and S-enantiomers of ranolazine on left ventricular monophasic action potential duration (LV MAPD), regional LV dispersion of MAPD (apex-base) and arrhythmogenesis. Female rabbit isolated hearts were perfused with modified K-H solution and paced at a constant rate of 1 Hz after surgical-induced complete atrioventricular block. LV MAPs from the base and apex were measured using contact MAP electrodes.
Each animal was sedated using 6 mg/kg xylazine i.m. and 40 mg/kg ketamine i.m. and then anesthetized by a “cocktail” (ketamine 15 mg/kg+xylazine 4 mg/kg in 1.5 mL saline) i.v. via the marginal ear vein. The thorax was quickly opened. The heart was excised and placed in a modified Krebs-Henseleit (K-H) solution at room temperature. The K-H solution contained (in mmol/L): NaCl 118, KCl 2.8, KH2PO4 1.2, CaCl2 2.5, MgSO4 0.5, pyruvate 2.0, glucose 5.5, Na2EDTA 0.57 and NaHCO3 25. The solution was continuously gassed with 95% O2 and 5% CO2, and its pH was adjusted to 7.4. The aorta was rapidly catheterized and the heart was perfused by the method of Langendorff with K-H solution warmed to 36-36.5° C. at a rate of 20 mL/min with a roller pump (Gilson Minipuls3, Middleton, Wis.). Perfusion pressure was measured (with a Biopac MP 150 pressure transducer, Goleta, Calif.) from a side port of the aortic catheter. To facilitate exit of fluid from the chamber of the left ventricle (LV), the leaflets of the mitral valve were trimmed with fine spring-handled scissors. The right atrial wall was partially removed for AV node ablation to block AV conduction.
Complete AV block was induced by surgical ablation (heated) of AV nodal area. […] A bipolar Teflon-coated electrode was placed on the right ventricular septum to pace the heart. Electrical stimuli 3 msec in width and 3-fold threshold amplitude were delivered to the pacing electrode at a frequency of 1 Hz using a Grass S48 stimulator (W. Warwick, R.I.).
After initiation of ventricular pacing, a 30-40 min delay was allowed for heart rhythm and perfusion pressure to achieve a steady state, an essential experimental condition for recording a good quality monophasic action potential (MAP).
Monophasic action potentials (MAP) and ECG electrodes from Harvard Apparatus Inc. (Holliston, Mass.) were used to record left ventricular MAPs and bipolar ECG. Two MAP electrodes were placed on the epicardial ventricular free wall below the level of atrial-ventricular valves to record basal MAP and apex to record apical MAP signals, respectively. MAP electrodes were pressure-contact Ag—AgCl electrodes attached to a circular holder with springs to maintain the electrodes' contact with the LV epicardial surface. […] Signals were saved on a computer hard disk for subsequent analysis. Bipolar electrocardiogram (ECG) was generated using an isolated-heart ECG apparatus (Harvard Apparatus, Holliston, Mass.) attached to Biopac amplifier system. Coronary perfusion pressure was measured using a pressure transducer (Biopac or PowerLab pressure measuring system). […] All signals were saved on a computer hard disk for subsequent analysis.
Original MAP profiles of 3-5 consecutive beats were superimposed to get one average signal using computer software (Biopac, Goleta, Calif.) and then transferred into Microsoft Excel software and plotted to measure the duration of the MAP at the level at which repolarization is 90% completed (MAPD90).

In another data set the target is CYP2D6 (Homo sapiens, UniProt P10635). The data set is described as follows: biochemical.
Chain of CYP2D6 (P10635 whole entry): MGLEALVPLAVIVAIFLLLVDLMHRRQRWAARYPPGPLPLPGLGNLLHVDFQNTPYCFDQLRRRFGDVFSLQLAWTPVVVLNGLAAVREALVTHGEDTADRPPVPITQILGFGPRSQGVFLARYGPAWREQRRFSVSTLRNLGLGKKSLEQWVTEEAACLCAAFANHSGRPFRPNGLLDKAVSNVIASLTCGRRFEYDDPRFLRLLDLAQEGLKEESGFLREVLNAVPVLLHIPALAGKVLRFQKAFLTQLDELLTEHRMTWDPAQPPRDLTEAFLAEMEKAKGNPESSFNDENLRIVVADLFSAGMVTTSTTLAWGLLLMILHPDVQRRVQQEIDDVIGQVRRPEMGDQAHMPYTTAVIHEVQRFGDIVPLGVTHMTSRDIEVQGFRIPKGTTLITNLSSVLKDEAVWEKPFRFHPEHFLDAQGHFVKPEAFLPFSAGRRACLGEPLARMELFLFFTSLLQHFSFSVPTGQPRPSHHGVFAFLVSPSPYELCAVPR
Setting [2] is: paced at 1 Hz, site not stated, read-out: EC50 to prolong LV MAPD90.

Values joined by “and” are separate entries in the source; they are usually repeats but may differ in a detail not shown here. Equal values may be shown once. Read-outs that look alike come from different tables or passages of the source.

Usually Ki stands for a dissociation constant, usually derived from enzyme kinetics or from competition with a known ligand. Usually EC50 stands for the concentration that produces a half-maximal response. In general, IC50 refers to the midpoint of a concentration-inhibition curve. High values mean weaker potency in that assay, low ones greater potency in that assay.

T3 sequence (P18090 whole entry): as the sequence (P18090 whole entry) above
Description for CYP2D6: The incubation mixture contained potassium phosphate, pH 7.2 (final concentration=100 mM), magnesium chloride (5 mM), NADPH (1 mM), CYP2D6-specific marker substrate (bufuralol, 25 μM), (R) or (S)-ranolazine (10, 25, 100, 250, 1000 μM), or known CYP2D6 inhibitor (quinidine, 5 μM), and human liver microsomal (HLM) proteins. All reagents except NADPH were combined and preincubated at 37° C. for 2-3 min. Reactions were initiated by addition of NADPH and incubated 20 minutes. The CYP2D6 marker reaction, bufuralol 1-hydroxylation, was monitored. A known CYP2D6 inhibitor, quinidine, was included as a positive control. The negative control samples consisted of all components but not ranolazine. Incubations were run in triplicate for each condition except for positive controls, which were carried out in duplicate.

Turning to `COc1ccccc1OC[C@H](O)CN1CCN(CC(=O)Nc2c(C)cccc2C)CC1` [R-ranolazine, (R)-(+)-N-(2,6-dimethylphenyl)-4-[2-hydroxy-3-(2-methoxyphenoxy)-propyl]-1-piperazineacetamide], the “insulin levels relative to baseline during IVGTT, compared to vehicle treated rats” value in the data set on normal SD rats is “higher”. For the same compound, the Ki on β1-adrenergic receptors was > 100 µM; at β2-adrenergic receptors, 39 µM. Further, the Kb on β1-ARs and on β2-ARs was > 50 µM each time. The compound further displayed an IKs reduced in the data set with IKs of 5%. For the same compound, in data set [1] (setting [2]), the EC50 was 6.4 µM. Moreover, the “maximal increase of MAPD90” value in data set [1] (paced at 1 Hz, site not stated) is listed as 22±5%. The IC50 at CYP2D6 was 430 µM.
Turning to `COc1ccccc1OCC(O)CN1CCN(CC(=O)Nc2c(C)cccc2C)CC1` (racemic) [ranolazine, (±)-N-(2,6-dimethylphenyl)-4-[2-hydroxy-3-(2-methoxyphenoxy)propyl]-1-piperazine-acetamide], in the data set with normal SD rats, the “insulin levels relative to baseline during IVGTT, compared to vehicle treated rats” value is reported as “higher”. Also, the inhibition constant (Ki) worked out at 8.6 µM on β1-adrenergic receptors and 14.8 µM on β2-adrenergic receptors. The Kb was determined as 9.7 µM at β1-ARs and 12.2 µM at β2-ARs. The “regional MAPD dispersion and PVBs or VT” value in data set [1] (1-100 μM) was “without increasing regional MAPD dispersion or eliciting premature ventricular beats (PVBs) or ventricular tachycardia (VT)”. In addition, the concentration giving a half-maximal response (EC50) in data set [1] (paced at 1 Hz, read-out: EC50 to prolong LV MAPD90 (Apex)) was 4.8 µM; in data set [1] (paced at 1 Hz, read-out: EC50 to prolong LV MAPD90 (Base)) it was 4.3 µM. For the same compound, the “induction of EADs, PVBs or VT” value in data set [1] (at any concentration) is on record as “did not induce any EADs, PVBs or VT”. Further, the “maximal increase of apical MAPD90 above control” value in data set [1] (paced at 1 Hz, 30-100 μmol/L) is 35±4% and 35.2±4.1%. The “maximal increase of basal MAPD90 above control” value in data set [1] (paced at 1 Hz, 30-100 μmol/L) was 32±4% and 32.2±4.2%.
On to `COc1ccccc1OC[C@@H](O)CN1CCN(CC(=O)Nc2c(C)cccc2C)CC1` [S-ranolazine, (S)-(−)-N-(2,6-dimethylphenyl)-4-[2-hydroxy-3-(2-methoxyphenoxy)-propyl]-1-piperazineacetamide], for which the “insulin levels relative to baseline during IVGTT, compared to vehicle treated rats” value with normal SD rats is reported as “not different from the vehicle treated rats”. The figures for the Ki on β1-adrenergic receptors and at β2-adrenergic receptors were 4.8 µM and 6.7 µM, respectively. The Kb is 8 µM on β1-ARs and 9 µM at β2-ARs. Also, the IKs reduced in the data set with IKs was 27%. In data set [1] (setting [2]), the concentration for a half-maximal effect (EC50) was found to be 5.9 µM. In addition, in data set [1] (paced at 1 Hz, site not stated), the “maximal increase of MAPD90” value was 28±4%. On CYP2D6, this compound came in with a concentration for half-maximal inhibition (IC50) of 130 µM.
